Laboratory results as given in patent publication US20050208496A1, “Methods of testing for bronchial asthma or chronic obstructive pulmonary disease” (Genox Research, Inc., priority 2002, published 2005).

Test system: respiratory epithelial cells
Conditions: lot 1, Day 7, AI method

IL-13: human IL-13 (Peprotech, Inc.) added to the medium at 50 ng/mL to stimulate respiratory epithelial cells
AI700705 (46658_at) expression fold change: 2.4 fold | AI809925 (53010_at) expression fold change: 3.6 fold | AI821796 (57694_at) expression fold change: 3 fold | AI989346 (52327_s_at) expression fold change: 2.7 fold | AKAP2 (48035_at) expression fold change: 4.4 fold | AKAP10 (36632_at) expression, fold change upon IL-13 stimulation: 2 fold | ALOX15 (34636_at) expression, fold change upon IL-13 stimulation: 72.3 fold | ARHE (35803_at) expression fold change upon IL-13 stimulation: 2.3 fold | ARL7 (57151_at) expression fold change: 3.1 fold | AW019985 (48826_s_at) expression fold change: 6.9 fold | AXL (38433_at) expression, fold change upon IL-13 stimulation: 2.2 fold | BIG2 (34484_at) expression, fold change upon IL-13 stimulation: 2.2 fold | BST2 (39061_at) expression, fold change upon IL-13 stimulation: 3 fold | C1S (40496_at) expression, fold change upon IL-13 stimulation: 4.8 fold | C21orf11 (58957_at) expression fold change: 2.1 fold | CCND3 (1795_g_at) expression fold change upon IL-13 stimulation: 2.1 fold | CDH6 (57421_at) expression fold change: 3.8 fold | CDH26 (46916_at) expression fold change: 8.6 fold | CH25H (32363_at) expression, fold change upon IL-13 stimulation: 15.1 fold | CLDN5 (38995_at) expression, fold change upon IL-13 stimulation: 2.9 fold | CTSC (133_at) expression, fold change upon IL-13 stimulation: 2.8 fold | CXCL16 (44095_at) expression fold change: 4 fold | DBCCR1 (40292_at) expression, fold change upon IL-13 stimulation: 3.1 fold | DD96 (31610_at) expression, fold change upon IL-13 stimulation: 3.3 fold | DDIT3 (39420_at) expression, fold change upon IL-13 stimulation: 5.2 fold | DKFZP564O0823 (41402_at) expression, fold change upon IL-13 stimulation: 3.9 fold | DKFZP566J091 (57197_at) expression fold change: 11.3 fold | DNAJA1 (276_at) expression fold change upon IL-13 stimulation: 2.5 fold | DPP4 (34823_at) expression fold change upon IL-13 stimulation: 3.2 fold | DPYD (38220_at) expression fold change upon IL-13 stimulation: 2.5 fold | EMILIN-2 (51628_at) expression fold change: 3.1 fold | FADS3 (43394_s_at) expression fold change: 4.5 fold | FETUB (32620_at) expression fold change: 8.4 fold | FETUB (33101_g_at) expression fold change: 9 fold | FLJ10261 (43366_at) expression fold change: 10.6 fold | FLJ10261 (43963_at) expression fold change: 8.7 fold | FLJ14281 (50209_at) expression fold change: 2.5 fold | FLJ20420 (46233_at) expression fold change: 2.1 fold | FLJ22332 (56959_at) expression fold change: 3.4 fold | G1P3 (1358_s_at) expression, fold change upon IL-13 stimulation: 2.5 fold | GADD45G (39154_at) expression fold change upon IL-13 stimulation: 4.3 fold | H11 (56474_at) expression fold change: 2.3 fold | HLA-F (37420_i_at) expression, fold change upon IL-13 stimulation: 3.3 fold | HLA-F (37421_f_at) expression, fold change upon IL-13 stimulation: 2.4 fold | HLA-F (49203_f_at) expression fold change: 3.4 fold | HLALS (34427_g_at) expression, fold change upon IL-13 stimulation: 2 fold | HS3ST1 (41556_s_at) expression fold change upon IL-13 stimulation: 3.8 fold | HSD17B2 (38178_at) expression fold change upon IL-13 stimulation: 3.1 fold | HSPA5 (47634_at) expression fold change: 2.7 fold | HUMRTVLH3 (34702_f_at) expression, fold change upon IL-13 stimulation: 6.1 fold | Human hbc647 mRNA sequence (34759_at) expression, fold change upon IL-13 stimulation: 2.5 fold | ICAMt (32640_at) expression fold change upon IL-13 stimulation: 3.1 fold | IFI27 (425_at) expression, fold change upon IL-13 stimulation: 2.1 fold | IFI30 (39728_at) expression, fold change upon IL-13 stimulation: 2.1 fold | IFIT4 (38584_at) expression, fold change upon IL-13 stimulation: 4.6 fold | IL13RA2 (1016_s_at) expression fold change upon IL-13 stimulation: 4.8 fold | IRLB (32961_at) expression fold change: 2.5 fold | ISG15 (1107_s_at) expression, fold change upon IL-13 stimulation: 3 fold | KIAA0469 (37230_at) expression, fold change upon IL-13 stimulation: 2 fold | KIAA0537 (33787_at) expression, fold change upon IL-13 stimulation: 8.8 fold | KIAA1199 (36070_at) expression, fold change upon IL-13 stimulation: 4.3 fold | KRT16 (601_s_at) expression fold change: 3.6 fold | LOC57118 (51085_at) expression fold change: 2.2 fold | LOC64116 (40456_at) expression, fold change upon IL-13 stimulation: 2.8 fold | LRPAP1 (36194_at) expression, fold change upon IL-13 stimulation: 2.2 fold | MAT2A (32571_at) expression fold change upon IL-13 stimulation: 2.5 fold | MDA5 (51920_at) expression fold change: 3.8 fold | MED6 (35432_at) expression fold change: 2.7 fold | MET (1609_g_at) expression, fold change upon IL-13 stimulation: 2.6 fold | MET (1812_s_at) expression, fold change upon IL-13 stimulation: 5 fold | MET (35684_at) expression, fold change upon IL-13 stimulation: 3.4 fold | MFHAS1 (50388_at) expression fold change: 2.3 fold | MICB (35937_at) expression, fold change upon IL-13 stimulation: 3.5 fold | MKP-L (38272_at) expression, fold change upon IL-13 stimulation: 2.9 fold | MMP7 (668_s_at) expression, fold change upon IL-13 stimulation: 2.8 fold | MP1 (34839_at) expression, fold change upon IL-13 stimulation: 2 fold | MXI (37014_at) expression fold change: 2.9 fold | NCF2 (41038_at) expression fold change: 4 fold | NFIL3 (37544_at) expression fold change: 2.5 fold | NK4 (39119_s_at) expression fold change upon IL-13 stimulation: 6 fold | NOS2A (1948_f_at) expression fold change upon IL-13 stimulation: 9.4 fold | NOS2A (48918_at) expression fold change: 8.3 fold | NTRK1 (36805_s_at) expression, fold change upon IL-13 stimulation: 8.7 fold | OAF (39695_at) expression, fold change upon IL-13 stimulation: 4.3 fold | OAS1 (38389_at) expression fold change upon IL-13 stimulation: 2.4 fold | OSF-2 (1451_s_at) expression fold change upon IL-13 stimulation: 25.4 fold | PAK2 (1560_g_at) expression, fold change upon IL-13 stimulation: 2.4 fold | PITPNB (353_at) expression, fold change upon IL-13 stimulation: 2.8 fold | PITPNB (35017_f_at) expression, fold change upon IL-13 stimulation: 2.3 fold | PKD2 (38120_at) expression, fold change upon IL-13 stimulation: 2.7 fold | PLS1 (39951_at) expression fold change: 5.4 fold | PMCH (32005_at) expression fold change: 11 fold | PSMB9 (38287_at) expression fold change upon IL-13 stimulation: 2.6 fold | PVRL2 (50320_g_at) expression fold change: 2.2 fold | RASGRP1 (33291_at) expression fold change: 2.8 fold | RIG-1 (59215_at) expression fold change: 2.8 fold | SECTM1 (41045_at) expression, fold change upon IL-13 stimulation: 4.4 fold | SERPINB2 (37185_at) expression fold change: 5.3 fold | SERPINB4 (1549_s_at) expression fold change: 7.8 fold | SERPINB6 (34789_at) expression fold change: 2 fold | SIAT1 (41352_at) expression fold change upon IL-13 stimulation: 8.7 fold | SLC26A4, pendrin (36376_at) expression fold change: 20.1 fold | SPHK1 (51923_at) expression fold change: 2.1 fold | SSI-1 (41592_at) expression, fold change upon IL-13 stimulation: 6.1 fold | STAT1 (32859_at) expression fold change: 2.1 fold | TGFB2 (1262_s_at) expression fold change upon IL-13 stimulation: 3.2 fold
